Measured values reported in patent US20090069623A1, “METHODS AND COMPOSITIONS FOR TREATMENT OR PREVENTION OF RADIATION-INDUCED FIBROSIS” (Virginia Commonwealth University Intellectual Property …, priority 2007, published 2009).

How the values were obtained:
Assay type in all cases: cell-based, human
[1] = system: CTGF, fibronectin; assay: Western blot of irradiated HFL-1 cells treated with HMG-CoA inhibitors; conditions: 5 Gy, three days, FIG. 8C; for amount of CTGF detected in the cell lysate (CL): HMG-CoA inhibitor pretreatment 6 hours
Protocol: For statin treatment experiments, cells were grown overnight in 35 mm plates (6-well plates were also used in some studies) to form a 75-80% confluent monolayer. The cells were then washed with PBS, and the media was changed to SFM (800 μL).
(§1) Harvesting Culture Media and Cell Lystates. For analysis of extracellular CTGF, fibronectin, and α-tubulin, cell culture media was collected, centrifuged to remove cellular debris, aliquoted, and frozen at −70° C. until ready for use. For analysis of intracellular CTGF, fibronectin, and α-tubulin, cell lysates were harvested using 200 μL of HBSST lysis buffer (HBSS containing 1 mM MgSO4, 1 mM CaCl2, 4 mM NaHCO3, 0.5% Triton X-100, protease inhibitor cocktail). Cellular debris was removed by centrifugation.
Western blot analysis of HFL-1 whole cell proteins. […] Primary antibodies for CTGF and fibronectin were diluted at 1:600 and were incubated at 4° C. overnight with shaking. Primary antibodies for α-tubulin were diluted at 1:4,000 and were incubated at 4° C. overnight with shaking. Corresponding secondary antibodies were diluted at 1:6,000 and were incubated at room temperature for 1 hour with shaking. After washing the blot, the antibodies were detected by the enhanced chemiluminescence method (PerkinElmer Life Sciences Inc.).
Cells were harvested, and cell lysates were separated by SDS-PAGE. The separated proteins were then transferred to nitrocellulose, and Western immunoblotting was performed with antibodies specific for CTGF, fibronectin, and α-tubulin. […] As a control for protein loading, α-tubulin expression in HFL-1 cells was also determined.
Cells were harvested, and cell lysates were separated by SDS-PAGE. The separated proteins were then transferred to nitrocellulose, and Western immunoblotting was performed with antibodies specific for CTGF, fibronectin, and α-tubulin. FIG. 8C is a Western blot of HFL-1 cells exposed to radiation and treated with HMG-CoA inhibitors.

[2] = system: CTGF, fibronectin (FN), collagen type IV (Col IV) mRNA; assay: RT-PCR of mRNA expression in HFL-1 cells treated with TGF-β1; conditions: 0 to 25 ng/ml TGF-β1, six hour treatment, FIG. 5A
Protocol: (§2) Cell Culture and Treatment. Normal human fetal lung fibroblasts (HFL-1) were purchased from the American Type Culture Collection (ATCC Number: CCL-153) and cultured in Ham's F12K medium (American Type Culture Collection) supplemented with 2 mM L-glutamine adjusted to contain 1.5 g/L sodium bicarbonate and 10% fetal bovine serum. Cells were maintained in humidified 5% CO2 at 37° C. Human dermal fibroblasts (HDF), derived from the dermis of normal human adult skin, were purchased from Invitrogen, Inc. and cultured in Medium-106 (Invitrogen, Inc., Catalogue No. M-106-500) containing LSGS Kit (Invitrogen, Inc., Catalogue No. S-003-K) prior to use. After reaching 75-80% confluence, the medium was changed to serum free medium (SFM) for irradiation with different dose 1Gy, 2.5Gy, 5Gy, 7.5Gy and 10 Gy by using ^137Se. Alternatively, cells were treated with 5 ng/ml TGF-β1 (Sigma-Aldrich, Inc., Catalogue No. T7039) to stimulate CTGF production. The cells were then kept for 3 days in humidified 5% CO2 at 37° C. and subjected to Western immunoblot.^1 ^1What are the culture conditions (e.g., media) for M12 cells used in FIG. 3? […]
Normal human fetal lung fibroblasts (HFL-1) were treated with varying concentrations of TGF-β1, ranging from 0 ng/ml to 25 ng/ml. […] FIG. 5A is an agarose gel of RT-PCR products detected in HFL-1 cells following a six (6) hour treatment with TGF-β1.

[3] = system: CTGF, fibronectin; assay: Western blot of HFL-1 cells treated with TGF-β1
Protocol: Cell Culture and Treatment. Normal human fetal lung fibroblasts (HFL-1) were purchased from the American Type Culture Collection (ATCC Number: CCL-153) and cultured in Ham's F12K medium (American Type Culture Collection) supplemented with 2 mM L-glutamine adjusted to contain 1.5 g/L sodium bicarbonate and 10% fetal bovine serum. Cells were maintained in humidified 5% CO2 at 37° C. Human dermal fibroblasts (HDF), derived from the dermis of normal human adult skin, were purchased from Invitrogen, Inc. and cultured in Medium-106 (Invitrogen, Inc., Catalogue No. M-106-500) containing LSGS Kit (Invitrogen, Inc., Catalogue No. S-003-K) prior to use. After reaching 75-80% confluence, the medium was changed to serum free medium (SFM) for irradiation with different dose 1Gy, 2.5Gy, 5Gy, 7.5Gy and 10 Gy by using ^137Se. Alternatively, cells were treated with 5 ng/ml TGF-β1 (Sigma-Aldrich, Inc., Catalogue No. T7039) to stimulate CTGF production. […] 3?
as §1
Western blot analysis of HFL-1 whole cell proteins. The primary antibodies that selectively recognized CTGF (sc-14939) and fibronectin (sc-9068) were purchased from Santa Cruz Biotechnology, Inc., and primary antibodies that selectively recognized α-tubulin (T 9026) were purchased from Sigma. […] After washing the blot, the antibodies were detected by the enhanced chemiluminescence method (PerkinElmer Life Sciences Inc.).
Protein expression in HFL-1 cells treated with TGF-β1 was also determined. […] As a control for protein loading, α-tubulin expression in HFL-1 cells was also determined.

[4] = system: CTGF, fibronectin (FN), collagen type IV (Col IV) mRNA; assay: RT-PCR of mRNA expression in HDF cells treated with TGF-β1; conditions: 0 to 25 ng/ml TGF-β1, FIG. 9A
Protocol: as §2
Human dermal fibroblasts (HDF) were treated with varying concentrations of TGF-β1, ranging from 0 ng/ml to 25 ng/ml, […]. […] FIG. 9A is an agarose gel of RT-PCR products detected in HDF cells following a six (6) hour treatment with TGF-β1.

[5] = system: CTGF, fibronectin; assay: Western blot of HDF cells treated with TGF-β1; conditions: three days after TGF-β1, FIG. 9B
Protocol: Cell Culture and Treatment. Normal human fetal lung fibroblasts (HFL-1) were purchased from the American Type Culture Collection (ATCC Number: CCL-153) and cultured in Ham's F12K medium (American Type Culture Collection) supplemented with 2 mM L-glutamine adjusted to contain 1.5 g/L sodium bicarbonate and 10% fetal bovine serum. Cells were maintained in humidified 5% CO2 at 37° C. Human dermal fibroblasts (HDF), derived from the dermis of normal human adult skin, were purchased from Invitrogen, Inc. and cultured in Medium-106 (Invitrogen, Inc., Catalogue No. M-106-500) containing LSGS Kit (Invitrogen, Inc., Catalogue No. S-003-K) prior to use. After reaching 75-80% confluence, the medium was changed to serum free medium (SFM) for irradiation with different dose 1Gy, 2.5Gy, 5Gy, 7.5Gy and 10 Gy by using ^137Se. […]
Harvesting Culture Media and Cell Lystates. For analysis of extracellular CTGF, fibronectin, and α-tubulin, cell culture media was collected, centrifuged to remove cellular debris, aliquoted, and frozen at −70° C. until ready for use. […]
Western blot analysis of HFL-1 whole cell proteins. […] After washing the blot, the antibodies were detected by the enhanced chemiluminescence method (PerkinElmer Life Sciences Inc.).
Protein expression in HDF cells treated with TGF-β1 was also determined. […] As a control for protein loading, α-tubulin expression in HFL-1 cells was also determined.

[6] = three days after TGF-β1, FIG. 5B

For `CCOP(=O)(OCC)C(=Cc1cc(C(C)(C)C)c(O)c(C(C)(C)C)c1)P(=O)(OCC)OCC` [SR12813], the “amount of CTGF detected in the cell lysate (CL)” value (from here on “amount of CTGF detected”) [1] was “decreased as the amount of HMG-CoA inhibitor increased” and the “inhibitory effects on radiation-induced CTGF relative to other HMG-CoA inhibitors” value ([1]; pretreatment 6 hours) was “reduced relative to the inhibitory effects of simvastatin, pravastatin, lovastatin, mevinolin, and mevastatin”.

In the case of `CC[C@H](C)C(=O)O[C@H]1CCC=C2C=C[C@H](C)[C@H](CC[C@@H]3C[C@@H](O)CC(=O)O3)C21` (stereo partly drawn) [mevastatin, (2S)-2-methyl-butanoic acid(1S,7S,8S,8aR)-1,2,3,7,8,8a-hexahydro-7-methyl-8-[2-[(2R,4R)-tetrahydro-4-hydroxy-6-oxo-2H-pyran-2-yl]ethyl]-1-naphthale-nylester], the “amount of CTGF detected” value [1] is reported as “decreased as the amount of HMG-CoA inhibitor increased”.

With `CC[C@H](C)C(=O)O[C@H]1C[C@H](O)C=C2C=C[C@H](C)[C@H](CC[C@@H](O)C[C@@H](O)CC(=O)O)[C@H]21` [pravastatin, (βR,δR,1S,2S,6S,8S,8aR)-1,2,6,7,8,8a-hexahydro-β,δ,-6-trihydroxy-2-methyl-8-[(2S)-2-methyl-1-oxobutoxy]-1-naphthalene-heptanoic acid] the “amount of CTGF detected” value [1] was “decreased as the amount of HMG-CoA inhibitor increased”.

“(2S)-2-methyl-butanoic acid(1S,3R,7S,8S,8aR)-1,2,3,7,8,8a-hexahydro-3,7-dimethyl-8-[2-[(2R,4R)-tetrahydro-4-hydroxy-6-oxo-2H-pyran-2-yl]ethyl]-1-na-phthalenylester [mevinolin]” was tested, and the “amount of CTGF detected” value [1] was “decreased as the amount of HMG-CoA inhibitor increased”.

With “TGF-β1: Cytokine used to stimulate CTGF production (Sigma-Aldrich, Inc., Catalogue No. T7039)” the “expression of CTGF, FN, and Col IV mRNA” value [2] was “increased as the concentration of TGF-β1 increased”, the CTGF expression ([3]; 5 ng/ml TGF-β1 for 4 days, FIG. 1) was “increased” and the “amount of CTGF in culture medium (CM) and cell lysate (CL)” value [3, 6] was “increased as the amount of TGF-β1 increased”. The fibronectin protein expression [3, 6] was “same increase in protein expression”, the “expression of CTGF, FN, and Col IV mRNA” value [4] was “increased as the concentration of TGF-β1 increased” and the “amount of CTGF in culture medium (CM) and cell lysate (CL)” value [5] was “increased as the amount of TGF-β1 increased”. The fibronectin protein expression [5] was “same increase in protein expression”.
